Measurements from ChEMBL document CHEMBL3045751, “Structural Modification of the 6-Chloropyridyl Moiety in the Imidacloprid, Skeleton: Introduction of a Five-membered Heteroaromatic Ring and the Resulting Insecticidal Activity” (1993).

Each molecule was assayed on Nephotettix cincticeps (assay: Insecticidal activity against Nephotettix cincticeps (green rice leafhopper) in compound treated germinated rice seedlings assessed as mortality measured after 5 days).
Type: functional
Work on O=[N+]([O-])/C=C1\NCCN1Cc1ccco1 yielded an LC90 of 200 ppm.
O=[N+]([O-])/C=C1\NCCN1Cc1cccnc1 gave an LC90 of 8 ppm.
O=[N+]([O-])/C=C1\NCCN1Cc1csc(Cl)n1 gave an LC90 of 200 ppm.
Molecule O=[N+]([O-])/C=C1\NCCN1Cc1ccc(Cl)nc1 has an LC90 of 0.32 ppm.
Work on O=[N+]([O-])/C=C1\NCCN1Cc1ccc[nH]1 yielded an LC90 of 200 ppm.
For O=[N+]([O-])/N=C1\NCCN1Cc1cnc(Cl)s1 [IMIDACLOTHIZ], the LC90 was 0.32 ppm.
With O=[N+]([O-])/C=C1\NCCN1Cc1cccs1 the LC90 was 200 ppm.
For Cn1cc(CN2CCN/C2=C\[N+](=O)[O-])cn1, the LC90 was 1.6 ppm.
With Cc1ncc(CN2CCN/C2=C\[N+](=O)[O-])s1 the LC90 was 1.6 ppm.
O=[N+]([O-])/C=C1\NCCN1Cc1cc(Br)no1 was tested, and the LC90 was 1.6 ppm.
With O=[N+]([O-])/C=C1\NCCN1Cc1cncs1 the LC90 was 8 ppm.
O=[N+]([O-])/C=C1\NCCN1Cc1ccccc1 showed an LC90 of 200 ppm.
Cc1cc(CN2CCN/C2=C\[N+](=O)[O-])on1 gave an LC90 of 1.6 ppm.
For O=[N+]([O-])/N=C1\NCCN1Cc1ccc(Cl)nc1 [IMIDACLOPRID], the LC90 was 0.32 ppm.
O=[N+]([O-])/C=C1\NCCN1Cc1cnc(Cl)s1 gave an LC90 of 0.32 ppm.
O=[N+]([O-])/C=C1\NCCN1Cc1ccc(Br)s1 showed an LC90 of 40 ppm.
